Several values for one entry are separate records, joined by “and”; a condition that tells them apart may be missing. Equal values may be shown once.
Key:
Assay type in all cases: in vivo
[1] = tested on: Macrosiphum euphorbiae larvae; experiment: Effects on larval survival (artificial medium feeding); details: for aphicide activity on larvae compared with 0.2 mM solanidine: 0.002 mM; for Percentage of larval survival: after 16 days of treatment; for aphicide properties with respect to larvae compared with solanidine: 0.02 mM
Method: (§1) The Macrosiphum euphorbiae population was initiated from an apterous female provided by the Laboratory of Functional Biology, Insects and Interactions of the INRA/INSA of Villeurbanne in 2004. She was captured in 1995 on an eggplant in the Rhone-Alps region. The Macrosiphum euphorbiae aphids were raised on Desiree variety potato plants indoors at 20±1° C., 60±5% relative humidity and under a photoperiod of 16 hours of light and 8 hours of darkness.
For the tests on Macrosiphum euphorbiae larvae, adults were isolated and placed in PVC cages on artificial medium for one day in order to synchronize their lineage. Neonates (40 per experiment), less than 24 hours old, are placed in PVC cages containing artificial medium alone (control experiment) or artificial medium supplemented with 0.002, 0.02 or 0.2 mM active compound.
(§2) The individuals were monitored every two days over a period of 16 days. With each recording, the artificial medium is changed. Each cage houses five aphids.
(§3) A standard diet was used as the basis for carrying out the physiological monitoring. Its composition was described by Febvay et al. (J. Zool. 1988, 66(11), 2449-2453) and then modified according to the conditions of Down et al. (J. Insect Physiol. 1996, 42(11-12), 1035-1045) as shown in Table 2. The medium is supplemented with active compound and placed between two layers of Parafilm® in sterile conditions.
(§4) The statistical analyses were performed using the Statistica 10 software (StatSoft®). To compare aphid survival in comparison with the control, Pearson's X^2 test (α<0.05) was applied. To compare the compounds in terms of concentration and nature, Fisher's least significant difference (LSD) test was applied (α<0.05). Daily fecundity was also studied using Fisher's LSD test (α<0.05).
The biological tests were carried out on Macrosiphum euphorbiae neonates less than 24 hours old. They are placed on artificial medium containing chaconine, solanine, solanidine, 100, 101 or 102.

[2] = tested on: Macrosiphum euphorbiae adults; experiment: Effects on adult survival (artificial medium feeding); details: for Percentage of adult survival: after 16 days of treatment
Method: as §1
(§5) For the tests on Macrosiphum euphorbiae adults, neonates (50 per experiment) resulting from synchronization are raised in petri dishes on leaves of Desiree variety potato plants for 10 days. Once the adult stage is reached, they are placed in PVC cages containing artificial medium alone (control experiment) or artificial medium supplemented with 0.002, 0.02 or 0.2 mM active compound.
as §2, §3, §4
The biological tests of compounds 100, 101 and 102 on Macrosiphum euphorbiae adults are presented in FIG. 2, and are compared to a control experiment.

[3] = tested on: Macrosiphum euphorbiae reproduction; experiment: Effects on reproduction (daily fecundity per aphid)
Method: as §5, §2, §4
Data regarding the number of larvae resulting from parthenogenesis can be used to calculate daily fecundity per aphid. The results are presented in FIG. 3, wherein the number 10 represents the control, the reference numbers 12, 14 and 16 represent the results of compound 100 at the concentrations of 0.002, 0.02 and 0.2 mM, respectively, the reference numbers 18, 20 and 22 represent the results of compound 101 at the concentrations of 0.002, 0.02 and 0.2 mM, respectively, the reference numbers 24, 26, and 28 represent the results of compound 102 at the concentrations of 0.002, 0.02 and 0.2 mM, respectively.

Compound | aphicide activity on larvae compared with 0.2 mM solanidine [1] | Percentage of larval survival ([1]; 0.002 mM in artificial medium) | aphicide properties with respect to larvae compared with solanidine [1] | Percentage of larval survival ([1]; 0.02 mM in artificial medium) | Percentage of larval survival ([1]; 0.2 mM in artificial medium) | activity on adult survival in comparison with the control ([2]; 0.002 mM) | Percentage of adult survival ([2]; 0.002 mM in artificial medium) | activity on adult survival in comparison with the control ([2]; 0.02 mM) | Percentage of adult survival ([2]; 0.02 mM in artificial medium) | activity on adult survival in comparison with the control ([2]; 0.2 mM) | Percentage of adult survival ([2]; 0.2 mM in artificial medium) | effect on reproduction in comparison with the control ([3]; 0.02 mM) | effect on reproduction in comparison with the control ([3]; 0.2 mM) | mortality at 200 µM ([2]; Macrosiphum euphorbiae, 0.2 mM, read-out: mortality rate of adults)
CC1O[C@@H](OCc2cn(CCCO[C@H]3CC[C@@]4(C)C(=CCC5C6CC7C([C@H](C)C8CC[C@H](C)CN78)[C@@]6(C)CCC54)C3)nn2)C(O)C(O)[C@H]1O (stereo partly drawn) [Compound 102, 3-O-{3-[4-(α-L-rhamnopyranosyloxymethyl)-1,2,3-triazol-1-yl]propyl}solanidine] | lower activity than 0.2 mM solanidine | 84a % | stronger than with solanidine | 32% and 32b % | 6% and 6d % | no significant aphicide activity | 95a % | marked effect on the survival of adults | 67b % | marked effect on the survival of adults | 7d % | significantly reduce reproduction | significantly reduce reproduction | –
C[C@H]1CC[C@@H]2[C@@H](C)[C@H]3[C@H](C[C@H]4[C@@H]5CC=C6C[C@@H](O)CC[C@]6(C)[C@H]5CC[C@]34C)N2C1 [Solanidine, solanidine] | – | 74a % | – | 60d % | 52b % | – | – | – | – | – | – | – | – | –
C[C@H]1CC[C@@H]2[C@@H](C)[C@H]3[C@H](C[C@H]4[C@@H]5CC=C6C[C@@H](O[C@@H]7O[C@H](CO)[C@H](O[C@@H]8O[C@@H](C)[C@H](O)[C@@H](O)[C@H]8O)[C@H](O)[C@@H]7O[C@@H]7O[C@@H](C)[C@@H](O)[C@@H](O)[C@H]7O)CC[C@]6(C)[C@H]5CC[C@]34C)N2C1 [Chaconine, chaconine, reference compound] | – | 72a % | – | 70a % | 52b % | – | – | – | – | – | – | – | – | –
C[C@H]1CC[C@@H]2[C@@H](C)[C@H]3[C@H](C[C@H]4[C@@H]5CC=C6C[C@@H](O[C@@H]7O[C@H](CO)[C@H](O)[C@H](O[C@@H]8O[C@H](CO)[C@@H](O)[C@H](O)[C@H]8O)[C@H]7O[C@H]7O[C@@H](C)[C@H](O)[C@@H](O)[C@H]7O)CC[C@]6(C)[C@H]5CC[C@]34C)N2C1 [Solanine, solanine, reference compound] | – | 82a % | – | 80a % | 64c % | – | – | – | – | – | – | – | – | –
C[C@H]1CCC2[C@@H](C)C3C(CC4C5CC=C6C[C@@H](OCCCn7cc(CO[C@@H]8OC(CO)[C@H](O)C(O)C8O)nn7)CC[C@]6(C)C5CC[C@@]43C)N2C1 (stereo partly drawn) [Compound 101, 3-O-{3-[4-(β-D-galactopyranosyloxymethyl)-1,2,3-triazol-1-yl]propyl}solanidine] | lower activity than 0.2 mM solanidine | 62a % | stronger than with solanidine | 33% and 33b % | 24% and 24c % | – | 90a % | drop in the survival rate | 73b % | drop in the survival rate | 54c % | significantly reduce reproduction | significantly reduce reproduction | –
C[C@H]1CCC2[C@@H](C)C3C(CC4C5CC=C6C[C@@H](OCCCn7cc(CO[C@@H]8OC(CO)[C@@H](O)C(O)C8O)nn7)CC[C@]6(C)C5CC[C@@]43C)N2C1 (stereo partly drawn) [Compound 100, 3-O-{3-[4-(β-D-glucopyranosyloxymethyl)-1,2,3-triazol-1-yl]propyl}solanidine] | lower activity than 0.2 mM solanidine | 76a % | stronger than with solanidine | 26% and 26b % | 22% and 22c % | no significant activity | 97a % | no significant activity | 81b % | notable effect | 46c % | significantly reduce reproduction | significantly reduce reproduction | 54%

— patent US9663551B2, “Solanidine-derived compounds” (priority 2013, dated 2017)
